According to US9132084B2, “Methods for administration and formulations for the treatment of regional adipose tissue” (NEOTHETICS, INC., priority 2009, dated 2015):

Assay: Plasma pharmacokinetics following a single intravenous and subcutaneous injection of a combination of formoterol and budesonide
Details: for AUC(0-inf): AUCinf; for bioavailability: F (bioavailability); for concentration at 0.0333 hr: male 1-0771, 0.0333 hr; for concentration at 0.0833 hr: male 1-0771, 0.0833 hr; for concentration at 0.167 hr: male 1-0771, 0.167 hr; for concentration at 0.333 hr: male 1-0771, 0.333 hr; for concentration at 0.5 hr: male 1-0771, 0.500 hr; for concentration at 0.75 hr: male 1-0771, 0.750 hr; for concentration at 1 hr: male 1-0771, 1.00 hr; for concentration at 2 hr: male 1-0771, 2.00 hr; for concentration at 4 hr: male 1-0771, 4.00 hr; for concentration at 8 hr: male 1-0771, 8.00 hr; for concentration at 24 hr: male 1-0771, 24.0 hr
Experimental: Formoterol fumarate dehydrate and budesonide were formulated in 2% PEG-400 in saline. 1 male and 1 female non-naive Gottingen minipigs (8 to 12 kg upon receipt per protocol) were utilized. The animals were housed individually.
Each minipig received a single IV injection of the combined formoterol and budesonide formulation followed by testing of the SC doses. Each dose was separated by at least a 3-day washout period. The IV dose was administered by slow bolus (1 minute; 0.017 hr) into the marginal ear vein, whereas the first SC dose was administered as a bolus injection along the back (neck-region) where there was a longitudinal fat depot. The second SC dose was distributed in 5 separate proximal SC injections separated by approximately 2 cm. Blood samples (approximately 4 mL) were collected via the branchiocephalic plexus at pre-dose and at 2, 5, 10, 20, 30 and 45 minutes, and at 1, 2, 4, 8 and 24 hr post-dose. Blood samples were placed in tubes containing K2-EDTA as the anticoagulant. Samples were processed to plasma by centrifugation and stored frozen at approximately −70° C. (+/−15° C.) until shipment for analysis.
Plasma samples were analyzed for formoterol and budesonide using a qualified liquid chromatography/mass spectrometry/mass mass spectrometry (LC/MS/MS) method. The lower limit of quantitation (LLOQ) was 1.00 pg/mL for formoterol and 25.0 pg/mL for budesonide.
Non-compartmental pharmacokinetic parameters were calculated using WinNonlin 5.2 software, NCA model 202, IV infusion input for the IV data and NCA model 200, extravascular input for the SC data. Individual plasma concentrations for each animal were used in the calculation of pharmacokinetic parameters. Nominal collection times and doses were used in the calculations. The area under the plasma concentration-time curve (AUC) was calculated using linear trapezoidal approximation (linear/log interpolation). Concentration values below the assay limit of quantitation were set to zero for calculations. The maximum plasma concentration (Cmax) and the time of its occurrence (Tmax) were verified by inspection. The half-life (t1/2) values were calculated using the last 3 plasma concentrations with nonzero values, if data permitted.

[1] = male, Gottingen, minipig, in vivo, formoterol 0.4 μg/kg SC1 single site, combination, male 1-0771
[2] = male, Gottingen, minipig, in vivo, formoterol 0.4 μg/kg SC5 (5 sites), combination, male 1-0771
[3] = male, Gottingen, minipig, in vivo, Plasma concentration of formoterol, SC1 0.4 μg/kg, combination
[4] = male, Gottingen, minipig, in vivo, Plasma concentration of formoterol, SC5 0.4 μg/kg, combination
[5] = male, Gottingen, minipig, in vivo, iv, 0.4 ug/kg
[6] = male, Gottingen, minipig, in vivo, iv, 0.4 ug/kg, formoterol 0.4 μg/kg IV in combination with budesonide, male 1-0771
[7] = male, Gottingen, minipig, in vivo, iv, Plasma concentration of formoterol, IV 0.4 μg/kg, combination

## COc1ccc(CC(C)NCC(O)c2ccc(O)c(NC=O)c2)cc1 (centres unmarked) [Formoterol, formoterol]
Formoterol 0.4 μg/kg IV in combination with budesonide, male 1-0771
  tlast: 8.00 h
Formoterol 0.4 μg/kg SC1 single site, combination, female 2-0623
  tlast: 8.00 h
Formoterol 0.4 μg/kg SC1 single site, combination, male 1-0771
  tlast: 24.0 h
Formoterol 0.4 μg/kg SC5 (5 sites), combination, female 2-0623
  tlast: 24.0 h
Formoterol 0.4 μg/kg SC5 (5 sites), combination, male 1-0771
  tlast: 24.0 h
Formoterol with budesonide in about 2% PEG-400 in saline
  partition ratio (plasma Cmax subcutaneous / intravenous): 0.5
[1]
  AUC(0-inf): 0.627 ng·h/mL
  Cmax: 0.378 ng/mL
  bioavailability: 238%
  Tmax: 0.0333 h
[2]
  AUC(0-inf): 0.579 ng·h/mL
  Cmax: 0.217 ng/mL
  bioavailability: 219%
  Tmax: 0.167 h
male, Gottingen, minipig, in vivo, Plasma concentration of formoterol, SC1 0.4 μg/kg, combination, male 1-0771, 0 hr
  concentration at 0 hr: 0.00463 ng/mL
[3]
  concentration at 0.0333 hr: 0.378 ng/mL
  concentration at 0.0833 hr: 0.294 ng/mL
  concentration at 0.167 hr: 0.147 ng/mL
  concentration at 0.333 hr: 0.121 ng/mL
  concentration at 0.5 hr: 0.161 ng/mL
  concentration at 0.75 hr: 0.079 ng/mL
  concentration at 1 hr: 0.0833 ng/mL
  concentration at 2 hr: 0.0822 ng/mL
  concentration at 4 hr: 0.0422 ng/mL
  concentration at 8 hr: 0.0152 ng/mL
  concentration at 24 hr: 0.00287 ng/mL
[4]
  concentration at 0.0333 hr: 0.133 ng/mL
  concentration at 0.0833 hr: 0.216 ng/mL
  concentration at 0.167 hr: 0.217 ng/mL
  concentration at 0.333 hr: 0.15 ng/mL
  concentration at 0.5 hr: 0.0938 ng/mL
  concentration at 0.75 hr: 0.0941 ng/mL
  concentration at 1 hr: 0.0801 ng/mL
  concentration at 2 hr: 0.0711 ng/mL
  concentration at 4 hr: 0.0359 ng/mL
  concentration at 8 hr: 0.0181 ng/mL
  concentration at 24 hr: 0.0013 ng/mL
[5]
  Vd: 3.94 L/kg
  clearance: 25.3 mL/min/kg
[6]
  AUC(0-inf): 0.264 ng·h/mL
  Cmax: 0.41 ng/mL
  Tmax: 0.0333 h
male, Gottingen, minipig, in vivo, iv, 0.4 ug/kg, t1/2, formoterol 0.4 μg/kg IV in combination with budesonide, male 1-0771
  half-life: 2.54 h
[7]
  concentration at 0.0333 hr: 0.41 ng/mL
  concentration at 0.0833 hr: 0.0996 ng/mL
  concentration at 0.167 hr: 0.0902 ng/mL
  concentration at 0.333 hr: 0.0689 ng/mL
  concentration at 0.5 hr: 0.057 ng/mL
  concentration at 0.75 hr: 0.0488 ng/mL
  concentration at 1 hr: 0.0813 ng/mL
  concentration at 2 hr: 0.0265 ng/mL
  concentration at 4 hr: 0.0183 ng/mL
  concentration at 8 hr: 0.00533 ng/mL
male, Gottingen, minipig, in vivo, t1/2, formoterol 0.4 μg/kg SC1 single site, combination, male 1-0771
  half-life: 5.51 h
male, Gottingen, minipig, in vivo, t1/2, formoterol 0.4 μg/kg SC5 (5 sites), combination, male 1-0771
  half-life: 4.19 h
Single site and divided over 5 sites, combination
  absorption after SC administration: well absorbed
